Publication PMC7219108, “Pisum sativum Defensin 1 Eradicates Mouse Metastatic Lung Nodules from B16F10 Melanoma Cells” (International Journal of Molecular Sciences, 2020)

Legend:
[1] = system: B16F10 (murine skin melanoma) cells; experiment: MTT cell viability, B16F10 tumor cells; assay type: cell-based; details: 24 h, two independent experiments in triplicate, p < 0.001 vs untreated
[2] = system: HSP-2 (human hepatocyte) cells; experiment: Cell viability, healthy HSP-2 cells; assay type: cell-based; details: 6 and 30 µM, 3 h
B16F10 cells = experiment: SYTOXGreen uptake (membrane permeabilization), B16F10 cells; assay type: cell-based, murine
Description: Figure 2 Psd1 promotes B16F10 live cell membrane permeabilization as monitored by SYTOX Green fluorescence. (A) Psd1 untreated and hydrogen peroxide-treated B16F10 cells. (B) A total of 1.5 × 10^4 B16F10 cells were incubated with 3 or 50 µM Psd1 for 30 min. (C) 1.5 × 10^4 B16F10 cells were incubated with 50 µM Psd1 for 1 h. All experiments were performed at 37 °C. Nucleus staining is shown in green (SYTOXGreen), and mitochondria are shown in red (MitoTracker Red CMXRos). Images are shown at 20× magnification. […] (E) Psd1 induces apoptosis in B16F10 cells. B16F10 cells were treated with 50 µM Psd1 for 24 h and labeled with propidium iodide, and the DNA content was analyzed by flow cytometry for the sub-G0/G1 profile. At least two independent experiments were performed. TEXT PRINTED IN THE PICTURE: (E) Control: Sub-G1: 4.4% | (E) Psd1: Sub-G1: 60.6% (50μM)
Images were obtained in the X, Y, and Z planes of the image, giving the image a 3-dimensional depth (Z-stack) at 100× magnification with a Zeiss Cell Observer Yokogawa Spinning Disk confocal microscope (Cell Observed SD, Carl-Zeiss, Oberkochen, Germany) located in the Microscopia Óptica de Luz Gustavo de Oliveira Castro (Plamol) platform in Universidade Federal do Rio de Janeiro. To measure the mean fluorescence intensity (MFI), Zen Lite Blue (Carl-Zeiss, Oberkochen, Germany) software was used. On average, thirty cells per field were analyzed in fourteen fields by experiments. Then, the region of interest (ROI), specifically the nucleus and mitochondria, was tagged on the cells photographed for fluorescence analysis, which is given by the software from the intensity of the pixels. Subsequently, the statistical test was performed using GraphPad Prism version 7.4, and the values presented are averages with the corresponding standard deviations (SDs).
B16F10 cells were trypsinized and counted, and 1.5 × 10^4 cells/well in DMEM containing 0.1% (w/v) bovine serum albumin BSA were plated in a cell-view glass bottom culture dish with four compartments (Thermo Fisher Scientific Inc, Maryland, USA) and then incubated at 37 °C overnight to adhere. Post-treatment, the cells were treated with 3 or 50 µM Psd1 for 30 or 60 min and maintained at the same temperature. Cells treated with only water or 0.0001% H2O2 for 30 min were used as the negative and positive controls, respectively. Washes with saline were carried out between the additions of each probe followed by incubation at room temperature. The cells were incubated with 1 µL of SG, 1.5 µL of MitoTracker Red CMXRos, and 2 µL of DAPI for 10, 20, and 10 min, respectively. The fluorescent images were acquired by confocal microscopy.

[3] = Body weight of mice in the B16F10 metastasis experiment; assay type: in vivo, mouse; details: 0.1, 1 and 3 mg/kg Psd1 i.v. with B16F10 cells, 21 days; animals with B16F10 only lost weight
Excerpt: Figure 6 Protective effects of Psd1 on a model of experimental lung metastasis in vivo. B16F10 mouse melanoma tumors were established by intravenous injection of 2.5 × 10^5 B16F10 cells into C57BL/6 mice. (A) After 21 days, mice from each experimental group were sacrificed, and the number of visible lung metastatic nodules was quantified. Treatment of the animals inoculated with melanoma cells plus Psd1 caused a dose-dependent reduction in the number of lung metastases. Black lines represent the mean ± SEM of two independent experiments analyzed by one-way ANOVA and Bonferroni’s multiple comparison test. **** p < 0.0001 B16F10 vs. phosphate buffer solution (PBS); **** p < 0.0001 B16F10 vs. Psd1 1 mg/kg; **** p < 0.0001 B16F10 vs. just Psd1 1 mg/kg (without B16F10 cells); *** p < 0.001 B16F10 vs. Psd1 3 mg/kg; * p < 0.05 B16F10 vs. Psd1 0.5 mg/kg. (B) Representative images of lung metastatic nodules from animals that received just PBS or B16F10 cells alone or together with 0.1 mg/kg or 1 mg/kg Psd1. Bar = 2 mm. (C) Animal weights were acquired every two days. Weight variation was calculated as (weight on that day (weight of the first day × 100 − 100)). Only the days with higher weight differences between animals injected with only B16F10 cells and those that received cells plus Psd1 or PBS alone are represented. […]

Substance: Psd1: 46-amino acid residue plant defensin isolated from pea seeds, expressed in Pichia pastoris (PDB 1JKZ) (KTCEHLADTYRGVCFTNASCDDHCKNKAHLISGTCHNWKCFCTQNC)
- Reduction of B16F10 cell viability (MTT) ([1]; 25 µM): approximately 50%
- Reduction of B16F10 cell viability (MTT) ([1]; 50 µM): ~60%
- HSP-2 cell viability [2]: no alteration in cell viability
- SYTOXGreen entrance, nuclear staining (B16F10 cells; 3 µM and 50 µM, 30 min, 37 °C): intense green nuclear staining
- Cell adhesion / shape (B16F10 cells; 50 µM, 1 h): started to lose their adhesion capacity, assuming a less spread shape
- SYTOXGreen fluorescence signal (B16F10 cells; 50 µM, 1 h, 37 °C, p < 0.0001 vs 3 and 50 µM for 30 min): increased significantly
- Body weight [3]: gained weight throughout the assay
